In data set [1] the test system is P. aeruginosa TISTR 357. Nature of the data set: Compatibility with surfactants, residual antibacterial activity. It counts as physicochemical, Pseudomonas aeruginosa. The following applies: no AMP (same value in 1 h, 6 h and 12 h), agar well diffusion, % of non-treated AMP, mean ± SD, n = 3.
Description: The AMP was dissolved in sterile purified water and adjusted a final concentration to 16 µg/mL. The sensitivity of the AMP to temperatures of 37, 40, 50, 60, 80, and 100 °C, as well as autoclaving at 121 °C for 15 and 30 min was evaluated. The sensitivity of the AMP to proteolytic enzymes with different digesting characteristics was studied by incubating with a concentration of 1 mg/mL of proteinase K, trypsin, and α-chymotrypsin (Sigma-Aldrich, Warren, MI, USA). The compatibility of the AMP with surfactants was evaluated by exposing the AMP to 1% SDS or 1% Triton X-100 (AppliChem GmbH, Darmstadt, Germany). The degradation of the AMP under various pH conditions, including physiological and extended alkaline conditions, was evaluated by adjusting the pH of the solution to 1.2, 4.5, 6.8, 7.4, 8.0, 10.0, 12.0, and 14.0. After incubation, the pH of the AMP solution was neutralized to the original pH before being assessed for antibacterial activity. The antibacterial assay against P. aeruginosa TISTR 357 was conducted using the agar well diffusion assay in triplicate. The stability profiles are presented as the percentage of the residual activity compared with the non-treatment conditions (mean ± SD), and statistical significance was determined by the Student’s t-test at a p-value < 0.05.
Data set [2] relates to S. typhimurium TISTR 1469. The data set is described as follows: Agar well diffusion, antibacterial spectrum. It counts as cell-based, Salmonella typhimurium. Here is the method: (§1) The active isolates from the agar overlay assay were transferred into broth media identical to that used during the initial isolation. The cultures were incubated at 30 °C with shaking at 150 rpm for 18 h. The optical density of the starter culture was adjusted to a turbidity of 0.1 OD at 625 nm using a 0.85% sterile NaCl solution before transferring 1 mL of the culture into 49 mL of fresh broth. The inoculum was then incubated at 30 °C with shaking at 150 rpm for 24 h. The CFS was obtained by centrifugation at 10,000× g at 4 °C for 15 min and filtered through a 0.2 µm sterile cellulose acetate syringe filter. The antibacterial activity of the CFS derived from each isolate was investigated using P. aeruginosa TISTR 357, K. pneumoniae TISTR 1383, E. coli TISTR 887, S. typhimurium TISTR 1469, V. parahaemolyticus TISTR 1596, and S. aureus TISTR 517 from the Thailand Institute of Scientific and Technological Research (TISTR), Thailand. The antibiotic-resistant strain, MRSA strain 2468, was kindly provided by the medical technology laboratory at the School of the Allied Health Sciences, Walailak University, Thailand. The microbial indicators were incubated at 37 °C for 18 h on MH agar. […] The experiment was conducted in triplicate, and the mean ± SD of the diameters of the inhibition zones was measured.

In data set [3] the test system is K. pneumoniae TISTR 1383. Nature of the data set: Agar well diffusion, antibacterial spectrum. It counts as cell-based, Klebsiella pneumoniae. Here is the method:
as §1

Data set [4] relates to S. aureus TISTR 517. The data set is described as follows: Agar well diffusion, antibacterial spectrum. The format is cell-based, Staphylococcus aureus. Here is the method: as §1
Data set [5] concerns P. aeruginosa TISTR 357. Nature of the data set: Agar well diffusion, antibacterial spectrum. It counts as cell-based, Pseudomonas aeruginosa. Here is the method:
as §1

Data set [6] relates to MRSA Strain 2468. The data set is described as follows: Agar well diffusion, antibacterial spectrum. It counts as cell-based, methicillin-resistant Staphylococcus aureus. Here is the method: as §1
Data set [7] concerns V. parahaemolyticus TISTR 1596. The data set is described as follows: Agar well diffusion, antibacterial spectrum. The format is cell-based, Vibrio parahaemolyticus. Here is the method:
as §1

Data set [8] has as its system E. coli TISTR 887. Nature of the data set: Agar well diffusion, antibacterial spectrum. The format is cell-based, Escherichia coli. Here is the method: as §1
Data set [9] has as its system P. aeruginosa TISTR 357. It counts as cell-based, Pseudomonas aeruginosa. The following applies: 37 °C 24 h, triplicate. Here is the method:
(§2) The MIC and MBC of the purified AMP were determined using the broth microdilution method following the guidance provided by the Clinical and Laboratory Standards Institute (CLSI). P. aeruginosa TISTR 357 and K. pneumoniae TISTR 1383 were cultured on MH agar and incubated at 37 °C for 18 h. A single colony of the tested bacteria was suspended in 0.85% NaCl until the suspension turbidity reached an OD of 0.1 at 625 nm. The cells were then diluted to 5 × 10^6 CFU/mL using cation-adjusted Mueller Hinton broth (CAMHB). The diluted cell suspension of 10 µL was transferred into each well of a 96-well plate with a final volume of 100 µL per well. The AMP was added to achieve final concentrations ranging from 0.125 to 64 µg/mL. Colistin was used as the positive control, while antibiotic-free samples were used as negative controls. The 96-well plate was incubated at 37 °C for 24 h. Each strain was tested in triplicate. […] Subsequently, 100 µL of each dilution was spread on MH agar and then incubated at 37 °C for 24 h. The MBC was identified as the lowest concentration at which no bacterial colony growth was observed on the agar plate.

The test system of data set [10] is K. pneumoniae TISTR 1383. The format is cell-based, Klebsiella pneumoniae. The following applies: 37 °C 24 h, triplicate. Here is the method:
as §2

For data set [11] the following is noted: cited from earlier work. An excerpt:
The AMP of Paenibacillus thiaminolyticus NNS5-6 was sensitive to proteinase K and trypsin, confirming its proteinaceous nature. […] The AMP was also stable across a wide pH range (pH 4.5–10) compared with extremely acidic and alkaline environments. This information could help inform temperature conditions and buffer choices during purification and guide the formulation development of drug delivery systems for suitable administration routes.

Setting [12] is: plated on MH agar after microdilution.
Setting [13] is: agar well diffusion on MH agar, 9 mm wells, 37 °C 18 h, CFS 100 µL, vancomycin 30 µg, colistin 1 µg, mean ± SD, n = 3.

The source of these data is PMC11428215, “Unveiling a New Antimicrobial Peptide with Efficacy against P. aeruginosa and K. pneumoniae from Mangrove-Derived Paenibacillus thiaminolyticus NNS5-6 and Genomic Analysis” (Antibiotics, 2024).

`CCCCCCCCCCCCOS(=O)(=O)[O-].[Na+]` [SDS, reference compound]: in data set [1] (1% SDS alone), the “antibacterial activity of surfactant alone against P. aeruginosa TISTR 357, given as % residual activity” value is 121.76 ± 2.42 %.

On to `CN[C@H](CC(C)C)C(=O)N[C@H]1C(=O)N[C@@H](CC(N)=O)C(=O)N[C@H]2C(=O)N[C@H]3C(=O)N[C@H](C(=O)N[C@H](C(=O)O)c4cc(O)cc(O)c4-c4cc3ccc4O)[C@H](O)c3ccc(c(Cl)c3)Oc3cc2cc(c3O[C@@H]2O[C@H](CO)[C@@H](O)[C@H](O)[C@H]2O[C@H]2C[C@](C)(N)[C@H](O)[C@H](C)O2)Oc2ccc(cc2Cl)[C@H]1O` [Vancomycin], for which the zone of inhibition at 30 µg/disc in [2] (Salmonella enterica, 18 h) was 0 mm; in data set [3] (Klebsiella pneumoniae, TISTR1383, 18 h), 0 mm; in [4] (Staphylococcus aureus, TISTR517, 18 h) it was 21.6 ± 0.51 mm; in data set [5] (Pseudomonas aeruginosa, TISTR357, 18 h), 0 mm; in [6] (Staphylococcus aureus, MRSA, 18 h), 21.8 ± 0.78 mm; in data set [7] (Vibrio parahaemolyticus, TISTR1596, 18 h), 0 mm. This molecule registered a zone of inhibition at 30 µg/disc in data set [8] (Escherichia coli, TISTR887, 18 h) of 0 mm.

Consider Colistin, for which the minimum inhibitory concentration (MIC) was determined as 1 mg/L in data set [9] (broth microdilution, CAMHB) and 1 mg/L in [10] (broth microdilution, CAMHB). For the same molecule, the minimal bactericidal concentration (MBC) in data set [9] (setting [12]) and in data set [10] (setting [12]) was 1 mg/L in each case. The “Zone of Inhibition” value in data set [2] (setting [13]) is reported as 20.4 ± 0.89 mm; in [3] (setting [13]) it was 18.81 ± 0.39 mm; in [4] (setting [13]), 0.00 ± 0.00 mm; in data set [5] (setting [13]), 18.05 ± 0.67 mm; in [6] (setting [13]) it was 0.00 ± 0.00 mm; in data set [7] (setting [13]), 18.8 ± 0.76 mm. The “Zone of Inhibition” value in [8] (setting [13]) worked out at 18.13 ± 0.88 mm.

For Triton X-100 [reference compound], in data set [1] (1% Triton X-100 alone), the “antibacterial activity of surfactant alone against P. aeruginosa TISTR 357, given as % residual activity” value was 126.83 ± 2.72 %.

fusaricidin A: the “sensitivity to protease treatment” value in data set [11] is reported as “insensitive to protease treatment”. In data set [11] (fusaricidin A produced by Paenibacillus bovis sp. nov BD3526), the “pH range over which antimicrobial activity is retained” value was 2.0 to 9.0.
